Where no end group is shown, it is not given here.
Key:
EAE = conditions: Shijie et al. 2009; cited from earlier work
EAE in rats = conditions: direct application (Smith et al.); cited from earlier work
inflammation = conditions: EAE (Pitt et al.); cited from earlier work
activated T-cells = conditions: Pitt et al.; cited from earlier work
EAE mice = EAE mice (Fazio et al. 2008); cited from earlier work
GAPDH = biological target: T1, GAPDH (Rattus norvegicus, UniProt P04797); assay: Pull-down affinity assay of GluR2-GAPDH interaction; format: binding; conditions: solubilized rat hippocampal tissue, approximately 100 μg GST-fusion protein
T1 construct: Rat hippocampus was homogenized in 50 mM Tris-HCl (pH 7.5); from tissue; host or cells: rat hippocampus homogenate
Method: Desired DNA sequences of the GluR2 N-terminus were obtained by polymerase chain reaction. The DNA sequences were digested with BamHI and Xhol enzymes to create sticky ends and subsequently incorporated into GST-plasmids (pGEX4T3) through DNA ligation. Following ligation, transformation with DH5a competent cells was performed to amplify the plasmid content. Subsequently, the plasmids were extracted and subjected to sequence confirmation. Having the desired DNA sequences confirmed, the GST-fusion proteins were expressed through the transformation with another strain of competent cells (i.e. BL21). The GST-fusion proteins were then precipitated and purified through glutathione resin (from Genescript).
Rat hippocampus was homogenized in 50 mM Tris-HCl (pH 7.5), 150 mM NaCl, 1% NP-40, 0.5% sodium deoxycholate, 1 mM EDTA, 10% Triton X-100, 1 mM PMSF and protease inhibitor cocktail (Sigma, 5 microl per 100 mg tissue). The hippocampal tissue was further solubilized with 1% Triton X-100 and then centrifuged at 14,000 rpm at 4° C. for 15 mins The solubilized hippocampal tissue (approximately 1 milligram of protein) was incubated with glutathione resin (Genescript) and indicated GST-fusion proteins (approximately 100 μg) at 4° C. overnight and followed by an hour of incubation at room temperature. After the incubation, the samples were washed 4-6 times with 1 mL PBS contained 0.1% Triton X-100. […]

oligodendrocytes = assay: CNPase- and CC1-labeled oligodendrocytes in EAE mouse spinal cord; format: in vivo; conditions: EAE mice, dorsal regions of spinal cord; compared to sham
Method: (§1) Frozen coronal sections of EAE mice spinal cord (10 μm) thickness were cut using a microtome cryostat system (Bright Instruments 5030). All sections were initially incubated in blocking solution (0.1 m PBS, 1% Triton X-100, 0.5% Tween 20, 2% skim milk) or serum-free protein block (Dako Cytomation) for 1 h at room temperature to reduce nonspecific background and then incubated with primary and secondary antibodies overnight at 4° C. The following primary antibodies were used: anti-Iba1 (1:200; Dako), anti-Neurofilament H (1:200), anti-CC1, anti-CNPase (1:200), and anti-NeuN (1:200). Fluorescent secondary antibodies conjugated to Alexa 488 or Rhodamine Red-X (1:200; Invitrogen) or Cy3 (1:100; Jackson ImmunoResearch Laboratories) were used for detection of primary antibodies.

myelin = assay: Luxol Fast Blue staining of myelin in EAE mouse spinal cord; format: in vivo; conditions: EAE mice spinal cord; compared to sham
Method: At day 30, mice were sacrificed by overdose anesthesia, and the spinal cord was dissected for co-immunoprecipitation analysis. For analysis of central nervous system infiltrates, brain and spinal cord tissues were collected and mononuclear cells were prepared by Percoll gradient centrifugation. For immunological analysis, splenocytes cells were dissected and cultured in vitro. For histological analysis, the same tissue samples were immediately fixed in 4% (wt/vol) paraformaldehyde. Frozen sections of spinal cord were stained with Luxol fast blue for analysis of […].

neurofilament-H = assay: Neurofilament-H immunostaining, axonal density in EAE mouse spinal cord; format: in vivo; conditions: EAE mice spinal cord; compared to sham
Method: as §1

Iba1+ cells = assay: Iba1 immunolabeling of macrophages/microglia in EAE mouse spinal cord; format: in vivo; conditions: EAE mice; compared to sham
Method: as §1
As MS is closely associated with inflammation and autoimmunity, the TAT-G-Gpep peptide was tested to determine if it affects microglial/macrophage recruitment.

cytokines = assay: Bioplex, cytokine profiles in cultured spleenocytes re-stimulated with MOG35-55; format: in vivo, mice; conditions: vs the other two groups
Method: Cytokine measurement was performed by Bioplex Protein Array (Bio-Plex Pro™ Mouse Cytokine 23-plex Assay) from Bio-Rad as per manufacturer's instruction. EAE mice serum, culture supernatant of spleenocytes in different treatment groups and supernatant of brain infiltrated leukocyte culture were used for bioplex protein array in duplicates. The standard curves were optimized automatically by the software (Bioplex manager) and verified manually. The Bioplex manager software was used to calculate cytokine concentrations. Data is expressed as Mean±SEM.

GluR2-GAPDH interaction = conditions: previously shown (PCT/CA2007/001539); cited from earlier work
hippocampal neurons = conditions: animal models of ischemic stroke; previously shown (PCT/CA2007/001539); cited from earlier work

T1 sequence (P04797 whole entry, the tested form may be a part): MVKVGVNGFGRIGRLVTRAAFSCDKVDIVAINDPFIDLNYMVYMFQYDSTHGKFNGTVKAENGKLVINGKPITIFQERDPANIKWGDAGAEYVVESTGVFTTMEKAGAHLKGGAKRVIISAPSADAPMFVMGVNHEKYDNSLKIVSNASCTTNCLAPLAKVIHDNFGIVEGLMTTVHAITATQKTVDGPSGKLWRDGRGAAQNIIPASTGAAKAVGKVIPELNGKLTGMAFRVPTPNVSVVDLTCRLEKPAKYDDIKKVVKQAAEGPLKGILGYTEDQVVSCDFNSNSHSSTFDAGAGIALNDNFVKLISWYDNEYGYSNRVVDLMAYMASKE
Chain of GluR2-GAPDH interaction (P04406 whole entry, the tested form may be a part): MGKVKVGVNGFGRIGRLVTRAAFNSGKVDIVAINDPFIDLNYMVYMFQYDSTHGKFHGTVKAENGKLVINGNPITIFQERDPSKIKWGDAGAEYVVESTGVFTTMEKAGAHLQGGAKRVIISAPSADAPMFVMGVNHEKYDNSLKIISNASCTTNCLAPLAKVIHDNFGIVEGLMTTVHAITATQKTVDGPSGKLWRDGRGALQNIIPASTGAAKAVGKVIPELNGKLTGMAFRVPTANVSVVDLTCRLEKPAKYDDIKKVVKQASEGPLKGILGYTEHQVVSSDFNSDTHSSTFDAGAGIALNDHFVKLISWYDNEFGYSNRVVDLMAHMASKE

For `[N-]=[N+]=CC(=O)CC[C@H](N)C(=O)O` [DON, 6-diazo-5-oxo-L-norleucine], the “neurological effects of EAE” value (EAE) is given as “attenuated”.

In the case of `O=c1[nH]c2cc(C(F)(F)F)c(N3CCOCC3)cc2n(CP(=O)(O)O)c1=O` [MPQX], the “acute and chronic neurological effects of EAE” value (EAE in rats) is given as “reduces the acute and chronic neurological effects of EAE”.

For `NS(=O)(=O)c1cccc2c1c([N+](=O)[O-])cc1nc(O)c(O)nc12` [NBQX], the “acute and chronic neurological effects of EAE” value (EAE in rats) is given as “reduces the acute and chronic neurological effects of EAE”, the amount of inflammation (inflammation) is given as “did not reduce” and the “in vitro proliferation of activated T-cells” value (activated T-cells) is given as “did not reduce”.

For `O=C(Nc1nc(C(F)(F)F)co1)C1c2ccccc2Oc2ccccc21` [RO0711401], the motor coordination (EAE mice) is given as “improves motor coordination”.

For `CC1(C)[C@@H](OC(=O)CCC(=O)O)CC[C@]2(C)[C@H]3C(=O)C=C4[C@@H]5C[C@@](C)(C(=O)O)CC[C@]5(C)CC[C@@]4(C)[C@]3(C)CC[C@@H]12` [carbenoxolone], the “neurological effects of EAE” value (EAE) is listed as “attenuated”.

With “GST alone: glutathione S-transferase alone, negative control” the “precipitation (pull down) of GAPDH” value (GAPDH) was “neither the GST alone nor the GST-fusion protein containing fragment 1 (Tyr142-Leu161 (SEQ ID NO:7)) sufficed to “pull down” GAPDH”.

With “GST-Fragment 2: GST fusion protein of fragment 2, Asp153-Lys172 of GluR2 N-terminus, DSDRGLSTLQAVLDSAAEKK (SEQ ID NO:5) (also: GST fusion protein)” the “precipitation (pull down) of GAPDH” value (GAPDH) was “able to precipitate GAPDH”.

In the case of “YGRKKRRQRRRAFDLSQYDLKWQVDYLKYDYGTASELRASA (G-Gpep-sc or G-Gpep-scrambled) [TAT-G-Gpep-sc, scrambled G-Gpep control peptide fused to TAT domain]”, the “number of CNPase- and CC1-labeled oligodendrocytes” value (oligodendrocytes) was “significantly lower”, the “demyelination (myelin in the ventral funiculus)” value (myelin) was “Significant demylenation” and the “area occupied by neurofilament-H” value (neurofilament-H) was “significantly lower”. The “number of Iba1+ cells in the dorsal and ventral horns” value (Iba1+ cells) was “significantly more macrophages/microglia”.

In the case of “YYQWDKFAYLYDSDRGLSTLQAVLDSAAEKK (GluR2 NT1-3-2) [G-Gpep, interfering peptide, GluR2 NT1-3-2 (Y142-K172)]”, the “immunoreactivity of spleenocytes (most cytokines)” value (cytokines) is listed as “significantly suppressed”, the “disruption of GluR2-GAPDH interactions” value (GluR2-GAPDH interaction) is listed as “capable of disrupting GluR2-GAPDH interactions” and the “protection of neurons from ischemia-induced cell death” value (hippocampal neurons) is listed as “protecting neurons from ischemia-induced cell death”.

Reference: US9518104B2, “Compositions and methods for treating multiple sclerosis” (Centre for Addiction and Mental Health, priority 2012, dated 2016)
